Experimental data taken from paper PMC3723234 (Pain, 2012).
Blank lines part the entries; values can stand above or below the molecule they belong to.

Experiments:
[1] = biological target: T1, N-acylethanolamine acid amidase (NAAA) (Rattus norvegicus, UniProt Q5KTC7); assay: LC/MS enzyme activity assay in HEK-rNAAA cell preparations; format: biochemical
T1 sequence (Q5KTC7 34-130): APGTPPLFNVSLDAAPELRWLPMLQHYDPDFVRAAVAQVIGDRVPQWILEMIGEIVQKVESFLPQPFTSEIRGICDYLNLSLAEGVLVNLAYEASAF
T1 sequence (Q5KTC7 131-362): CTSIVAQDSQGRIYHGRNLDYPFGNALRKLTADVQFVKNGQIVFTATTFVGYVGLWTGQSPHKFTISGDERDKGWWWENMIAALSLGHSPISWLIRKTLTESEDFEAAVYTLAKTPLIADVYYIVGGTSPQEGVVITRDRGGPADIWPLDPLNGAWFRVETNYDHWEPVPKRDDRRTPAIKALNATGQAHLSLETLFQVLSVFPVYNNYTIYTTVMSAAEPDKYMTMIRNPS

[2] = substrate: CCCCCC/C=C\CCCCCCCCC(=O)NCCO; assay: Michaelis-Menten analysis by LC/MS of heptadecenoic acid formation; format: biochemical, Rattus norvegicus

IC50 [1]: 11 nM
Molecule: C[C@@H]1OC(=O)[C@@H]1NC(=O)OCCCCCc1ccccc1 [ARN077, 5-phenylpentyl N-[(2S,3R)-2-methyl-4-oxo-oxetan-3-yl] carbamate]

B1: N-acylethanolamine acid amidase (NAAA) (Rattus norvegicus) (protein)
chain 1: T1 sequence (Q5KTC7 34-130)
chain 2: T1 sequence (Q5KTC7 131-362)
Vmax [2]: 0.0154 µmol/min/mg
